Results reported in US20050228016A1, “TETRAHYDROQUINOLINES FOR MODULATING THE EXPRESSION OF EXOGENOUS GENES VIA AN ECDYSONE RECEPTOR COMPLEX” (priority 2002, published 2005).

Columns and labels:
[1] = molecular target: T1, Gal4DBD/AaEcR (DEF) (Aedes aegypti, UniProt P49880); experiment: cell-based; format: cell-based; conditions: 33 μM; 3T3 cells; 48 h; average of two wells
T1 construct: The wildtype D, E, and F domains from mosquito Aedes aegypti EcR; expressed in transfected cells; host or cells: 3T3 cells
T1 sequence (P28704 286-520 A311G/G315S/G445S/I449V): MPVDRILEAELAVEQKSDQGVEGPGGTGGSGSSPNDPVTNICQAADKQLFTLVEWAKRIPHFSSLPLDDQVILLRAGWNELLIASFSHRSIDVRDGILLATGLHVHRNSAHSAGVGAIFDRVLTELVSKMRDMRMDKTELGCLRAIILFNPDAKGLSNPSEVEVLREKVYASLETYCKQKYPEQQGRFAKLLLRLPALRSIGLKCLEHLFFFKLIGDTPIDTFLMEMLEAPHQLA
T1 sequence (P49880 405-776): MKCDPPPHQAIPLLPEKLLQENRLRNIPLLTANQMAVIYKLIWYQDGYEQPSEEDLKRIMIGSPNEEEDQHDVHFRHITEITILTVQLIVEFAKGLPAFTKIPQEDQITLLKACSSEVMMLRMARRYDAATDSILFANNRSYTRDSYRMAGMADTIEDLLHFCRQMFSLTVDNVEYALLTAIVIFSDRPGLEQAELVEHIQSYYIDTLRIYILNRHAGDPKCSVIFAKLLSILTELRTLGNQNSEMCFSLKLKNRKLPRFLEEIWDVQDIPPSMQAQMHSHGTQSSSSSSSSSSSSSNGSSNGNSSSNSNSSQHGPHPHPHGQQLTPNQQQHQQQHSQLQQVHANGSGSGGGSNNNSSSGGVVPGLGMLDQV
Procedure: 3T3 cells were trypsinized and plated at 2.5×10^3 cells/well on a 96-well plate. After incubation for 24 h at 37° C. under 5% CO2, cells were transfected with the Gal4DBD/AaEcR (DEF) gene expression cassette and the reporter plasmid, pFRLuc, containing a 5× GAL4 response element and the firefly luciferase gene in serum free media using Superfect (Qiagen). After transfection for 4 h at 37° C., the cells were treated with ligand in serum media. […] Single dose testing was performed at 33 μM.

[2] = molecular target: T2, Bombyx mori EcR (VP16-BmEcR, CVBE) (Bombyx mori, UniProt P49881); experiment: Z3 assay (HEK-293 clone Z3 with CVBE and 6x EcRE LacZ, β-galactosidase reporter); format: cell-based; conditions: 48 h, average of two wells
T2 construct: expressed in transfected cells
T2 sequence (P49881 86-606): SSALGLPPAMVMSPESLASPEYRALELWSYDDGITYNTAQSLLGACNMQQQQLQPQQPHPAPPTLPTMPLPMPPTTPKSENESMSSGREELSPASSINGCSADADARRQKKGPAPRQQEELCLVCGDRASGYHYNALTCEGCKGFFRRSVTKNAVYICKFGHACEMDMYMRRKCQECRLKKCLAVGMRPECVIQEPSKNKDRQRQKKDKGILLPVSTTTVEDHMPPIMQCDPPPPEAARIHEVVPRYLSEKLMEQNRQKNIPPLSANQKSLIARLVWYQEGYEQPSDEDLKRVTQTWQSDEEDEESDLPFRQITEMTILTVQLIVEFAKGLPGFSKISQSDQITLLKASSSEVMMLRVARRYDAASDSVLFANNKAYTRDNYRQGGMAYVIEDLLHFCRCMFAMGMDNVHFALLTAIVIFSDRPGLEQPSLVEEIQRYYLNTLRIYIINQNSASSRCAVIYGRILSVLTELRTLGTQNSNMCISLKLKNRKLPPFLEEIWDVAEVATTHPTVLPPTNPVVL
Excerpt: Dr. F. Gage provided a population of stably transformed cells containing CVBE and 6× EcRE as described in (Suhr et. al. 1998). Human 293 kidney cells, also referred to as HEK-293 cells, were sequentially infected with retroviral vectors encoding first the switch construct CVBE, and subsequently the reporter construct 6× EcRE Lac Z. The switch construct contained the coding sequence for amino acids 26-546 from Bombyx nori EcR (BE) (Iatrou) inserted in frame and downstream of the VP16 transactivation domain (VBE). A synthetic ATG start codon was placed under the control of cytomegalovirus (CVBE) immediate early promoter and flanked by long terminal repeats (LTR). The reporter-construct contained six copies of the ecdysone response element (EcRE) binding site placed upstream of LacZ and flanked on both sides with LTR sequences (6× EcRE).
Dilution cloning was used to isolate individual clones. Clones were selected using 450 μg/ml G418 and 100 ng/ml puromycin. Individual clones were evaluated based on their response in the presence and absence of test ligands.
Human 293 kidney cells stably transformed with CVBE and 6× EcRE lack were maintained in Minimum Essential Medium (Mediates, 10-010-CV) containing 10%.FBS (Life Technologies, 26140-087),[…] G418 (Mediates, 30-234-CR), and […] (Sigma, P-7255), at 37° C. in an atmosphere containing 5% CO2 and were subculture when they reached 75% confluence.
Z3 cells were seeded into 96-well tissue culture plates at a concentration of 2.5×10^3 cells per well and incubated at 37° C. in 5% CO2 for twenty-four hours. Stock solutions of ligands were prepared in DMSO. Ligand stock solutions were diluted 100.fold in media and 50 μL of this diluted ligand solution (33 μM) was added to cells.
Reporter gene expression was evaluated 48 hours after treatment of cells, β-galactosidase activity was measured using Gal Screen™ bioluminescent reporter gene assay system from Tropix (GSY1000).
Flanking both constructs are long terminal repeats, G418 and puromycin are selectable markers, CMV is the cytomegalovirus promoter, VBE is coding sequence for amino acids 26-546 from Bombyx mori EcR inserted downstream of the VP16 transactivation domain, 6× EcRE is six copies of the ecdysone response element, lacZ encodes for the reporter enzyme β-galactosidase.

Molecule | Fold Induction Average, AA_3T3V1 Assay 33 μM [1] | Fold Induction Average, Z3V1 Assay 33 μM [2]
Cc1ccc(C(=O)N2c3ccccc3C(Nc3ccc(F)cc3)CC2C)cc1 (mixture of isomers) [Compound I-40] | 81 fold | 24 fold
Cc1ccc(C(=O)N2c3ccccc3C(Nc3cccc(Cl)c3)CC2C)cc1 (mixture of isomers) [Compound I-42] | 80 fold | 1 fold
Cc1ccc(C(=O)N2c3ccccc3C(Nc3ccc(Cl)cc3)CC2C)cc1 (mixture of isomers) [Compound I-43] | 114 fold | 3 fold
Cc1ccc(NC2CC(C)N(C(=O)c3ccc(C)cc3)c3ccccc32)cc1 (mixture of isomers) [Compound I-45] | 67 fold | 3 fold
COc1ccc(NC2CC(C)N(C(=O)c3ccc(C)cc3)c3ccccc32)cc1 (mixture of isomers) [Compound I-47] | 81 fold | 2 fold
CCCCCCC(=O)N1c2ccccc2[C@@H](Nc2ccccc2)C[C@@H]1C (relative stereo) [Compound I-1] |  | 10 fold
C[C@H]1C[C@@H](Nc2ccc(F)cc2)c2cc(F)ccc2N1C(=O)c1ccc(F)c(C(F)(F)F)c1 (relative stereo) [Compound I-4] | 4 fold | 1 fold
Cc1ccc(C(=O)N2c3ccccc3[C@H](Nc3ccccc3)C[C@@H]2C)cc1F (relative stereo) [Compound I-19] | 70 fold | 1 fold
Cc1ccc(N[C@H]2C[C@H](C)N(C(=O)c3ccc(F)c(F)c3)c3ccc(C)cc32)cc1 (relative stereo) [Compound I-21] | 52 fold | 1 fold
Cc1ccc(N[C@H]2C[C@H](C)N(C(=O)c3ccc(C(F)(F)F)c(F)c3)c3ccc(C)cc32)cc1 (relative stereo) [Compound I-23] | 87 fold | 1 fold
C[C@H]1C[C@@H](Nc2ccc(F)cc2)c2cc(F)ccc2N1C(=O)c1ccc(F)c(F)c1 (relative stereo) [Compound I-24] | 132 fold | 7 fold
C[C@H]1C[C@@H](Nc2ccc(F)cc2)c2cc(F)ccc2N1C(=O)c1ccc(C(F)(F)F)c(F)c1 (relative stereo) [Compound I-25] | 147 fold | 1 fold
CCc1ccc(C(=O)N2c3ccc(C)cc3[C@@H](Nc3ccc(C)cc3)C[C@@H]2C)cc1 (relative stereo) [Compound I-64] | 681 fold | 1 fold
C[C@H]1C[C@H](Nc2ccc(F)cc2)c2cc(F)ccc2N1C(=O)c1ccc(Cl)cc1 (relative stereo) [Compound I-65] | 345 fold | 82 fold
CCc1ccc(C(=O)N2c3ccc(F)cc3[C@@H](Nc3ccc(F)cc3)C[C@@H]2C)cc1 (relative stereo) [Compound I-66] | 813 fold | 206 fold
C[C@H]1C[C@H](Nc2ccccc2)c2ccccc2N1C(=O)c1ccccc1 (relative stereo) [Compound I-67] | 20 fold | 1 fold
C[C@H]1C[C@H](Nc2ccccc2)c2ccccc2N1C(=O)c1cccc(F)c1 (relative stereo) [Compound I-68] | 282 fold | 8 fold
C[C@H]1C[C@H](Nc2ccccc2)c2ccccc2N1C(=O)c1ccccc1C(F)(F)F (relative stereo) [Compound I-69] | 2 fold | 1 fold

Molecule | Fold Induction Average, AA_3T3V1 Assay 33 μM [1] | Fold Induction Average, Z3V1 Assay 33 μM [2]
C[C@H]1C[C@H](Nc2ccccc2)c2ccccc2N1C(=O)c1cccc(C(F)(F)F)c1 (relative stereo) [Compound I-70] | 376 fold | 26 fold
CCCC(=O)N1c2ccccc2C(N(C(=O)c2cccc(OC)c2)c2ccccc2)CC1C (centres unmarked) [Compound I-160] |  | 1 fold
CC1CC(Nc2ccccc2)c2ccccc2N1C(=O)Cc1cccc2ccccc12 (centres unmarked) [Compound I-169] |  | 1 fold
CC1CC(Nc2ccccc2)c2ccccc2N1C(=O)c1cccc(C(F)(F)F)c1 (centres unmarked) [Compound I-201] | 71 fold | 
Cc1ccc(NC2CC(C)N(C(=O)c3cccc(F)c3)c3ccc(C)cc32)cc1 (centres unmarked) [Compound I-203] | 3 fold | 
COc1cccc(C(=O)N2c3ccc(C)cc3C(Nc3ccc(C)cc3)CC2C)c1 (centres unmarked) [Compound I-204] | 1 fold | 
Cc1cccc(C(=O)N2c3ccc(F)cc3C(Nc3ccc(F)cc3)CC2C)c1 (centres unmarked) [Compound I-206] | 142 fold | 
CC1CC(Nc2ccc(F)cc2)c2cc(F)ccc2N1C(=O)c1cccc(F)c1 (centres unmarked) [Compound I-207] | 108 fold | 
COc1cccc(C(=O)N2c3ccc(F)cc3C(Nc3ccc(F)cc3)CC2C)c1 (centres unmarked) [Compound I-208] | 989 fold | 
CC1CC(Nc2ccc(F)cc2)c2cc(F)ccc2N1C(=O)c1cccc(C(F)(F)F)c1 (centres unmarked) [Compound I-209] | 384 fold | 
CC1CC(Nc2ccccc2)c2ccccc2N1C(=O)Nc1ccccc1 (centres unmarked) [Compound I-211] | 638 fold | 
CC1CC(Nc2ccccc2)c2ccccc2N1C(=O)Nc1ccc(Cl)cc1 (centres unmarked) [Compound I-212] | 367 fold | 
CC1CC(Nc2ccccc2)c2ccccc2N1C(=O)Nc1cccc(Cl)c1 (centres unmarked) [Compound I-213] | 527 fold | 
Cc1cccc(NC(=O)N2c3ccccc3C(Nc3ccccc3)CC2C)c1 (centres unmarked) [Compound I-215] | 1052 fold | 
Cc1ccc(NC2CC(C)N(C(=O)Nc3ccccc3)c3ccc(C)cc32)cc1 (centres unmarked) [Compound I-216] | 2 fold | 
Cc1ccc(NC2CC(C)N(C(=O)Nc3ccc(Cl)cc3)c3ccc(C)cc32)cc1 (centres unmarked) [Compound I-217] | 8 fold | 
trans-2-methyl-6-fluoro-1-(3-fluoro-4-methylbenzoyl)-4-(4-methylphenylamino), 4-(3-fluoro-4-methylbenzoyl)-1,2,3,4-tetrahydroquinoline [Compound I-196] | 1 fold | 
